Each structure is given as a SMILES string.

Test [1] has as its target T1, LAG-3 (Homo sapiens, UniProt P18627).
T1 sequence (P18627 23-525): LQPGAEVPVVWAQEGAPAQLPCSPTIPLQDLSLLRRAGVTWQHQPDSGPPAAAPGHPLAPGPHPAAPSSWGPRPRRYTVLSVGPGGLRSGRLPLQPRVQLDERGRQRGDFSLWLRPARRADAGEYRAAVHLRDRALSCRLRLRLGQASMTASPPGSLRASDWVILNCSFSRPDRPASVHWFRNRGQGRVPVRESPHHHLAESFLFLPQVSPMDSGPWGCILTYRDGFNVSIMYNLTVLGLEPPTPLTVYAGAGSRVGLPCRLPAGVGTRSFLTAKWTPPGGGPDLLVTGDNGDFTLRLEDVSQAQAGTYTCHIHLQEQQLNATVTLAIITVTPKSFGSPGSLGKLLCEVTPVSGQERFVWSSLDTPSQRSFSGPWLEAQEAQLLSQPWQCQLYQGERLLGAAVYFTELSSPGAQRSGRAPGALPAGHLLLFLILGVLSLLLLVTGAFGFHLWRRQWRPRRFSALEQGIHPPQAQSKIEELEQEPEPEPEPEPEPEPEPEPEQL
Description: single-dose TRIC screen. As to conditions: 2% DMSO; bound from single-dose screen at 300 µM. The test is classed as binding.

The target of test [2] is T2, His-TREM2 (TREM2) (Homo sapiens, UniProt Q9NZC2).
T2 sequence (Q9NZC2 19-174 limits assumed): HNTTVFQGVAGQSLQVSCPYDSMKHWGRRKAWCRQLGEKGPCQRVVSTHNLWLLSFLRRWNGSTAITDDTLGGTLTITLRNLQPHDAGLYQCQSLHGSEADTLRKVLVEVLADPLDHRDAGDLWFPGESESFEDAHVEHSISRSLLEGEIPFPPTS
The experiment in a line: MST. It is filed as binding.

The target of test [3] is T3, TREM1 (Homo sapiens, UniProt Q9NP99). The experiment in a line: single-dose TRIC/MST screen. It is filed as binding. The settings on record: PBS pH 7.4, 0.05% Tween-20; bound from single-dose screen at 300 µM.
Test [4] concerns the target T1, LAG-3. The experiment in a line: MST. It is filed as binding.
Test [5] addresses T3, TREM1. The experiment in a line: MST. The test is classed as binding.
For test [6], the target named is T2, His-TREM2 (TREM2). Description: biochemical.
Test [7] concerns the target T2, His-TREM2 (TREM2). The experiment in a line: nanoDSF thermal shift, dose-response. It is filed as binding.
Test [8] deals with T2, His-TREM2 (TREM2). Description: nanoDSF thermal shift. The test is classed as binding. As to conditions: read-out: ΔTm at 100 μM.

T3 sequence (Q9NP99 21-205 limits assumed): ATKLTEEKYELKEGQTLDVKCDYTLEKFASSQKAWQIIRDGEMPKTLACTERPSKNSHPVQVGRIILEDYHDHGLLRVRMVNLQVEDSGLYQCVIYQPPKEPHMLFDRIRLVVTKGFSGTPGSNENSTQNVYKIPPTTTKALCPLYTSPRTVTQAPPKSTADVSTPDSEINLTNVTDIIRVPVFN

On to `NC(=O)C1CCN(C(=O)c2cccn(Cc3ccccc3)c2=O)CC1` [2M06-1], for which the KD on LAG-3 [1] and at TREM1 [3] was above 300 µM throughout. For the same compound, the Kd on His-TREM2 (TREM2) [2] amounted to 124 ± 36 µM.
Turning to `Cn1cc(C(=O)N2C(C(=O)O)CC3CCCCC32)ccc1=O` (stereo not drawn) [2M06-6], the KD on LAG-3 [1] and at TREM1 [3] was above 300 µM each time. In addition, on His-TREM2 (TREM2) [2], the Kd is above 300 µM.
With `Cc1cccc(Cn2cccc(C(=O)NC3CCCCCC3)c2=O)c1` [2M06-8], the KD at LAG-3 [1] and on TREM1 [3] was above 300 µM in each case. Further, at His-TREM2 (TREM2) [2], the Kd is above 300 µM.
As to `Cc1cccc(Cn2cccc(C(=O)N3C(C(=O)O)CC4CCCCC43)c2=O)c1` (stereo not drawn) [2M06], the KD on LAG-3 [1] and at TREM1 [3] was above 300 µM in each case. Also, the affinity on His-TREM2 (TREM2) [2], expressed as Kd, was 26.1 ± 5.1 µM.
Regarding `O=C1CCCN1c1ccc2c(c1)CCN2` [6B10-1], the Kd on His-TREM2 (TREM2) [2] is 19.5 ± 6.8 µM; on LAG-3 [4], 59.4 ± 14.1 µM; at TREM1 [5] it was 121 ± 3.4 µM.
For the compound `CC(C)(C)CC(=O)Nc1ccc2c(c1)CCN2` [6B10-2], the KD on LAG-3 [1] and at TREM1 [3] was above 300 µM in each case. Besides, the Kd at His-TREM2 (TREM2) [2] was above 300 µM.
As for `COC1(CC(=O)Nc2ccc3c(c2)CCN3)CCC1` [6B10-3], the KD on LAG-3 [1] and at TREM1 [3] was above 300 µM each time. Further, on His-TREM2 (TREM2) [2], the Kd was above 300 µM.
For the compound `CC1(C(=O)Nc2ccc3c(c2)CCN3C(=O)c2ccoc2)CCCC1` [6B10-8], the KD on LAG-3 [1] and at TREM1 [3] was above 300 µM in each case. Moreover, the figures for the Kd at His-TREM2 (TREM2) [2] and at His-TREM2 (TREM2) [6] were 127 ± 16 µM and 136 ± 14 µM, respectively.
As for `O=C(Nc1ccc2c(c1)CCN2C(=O)c1ccoc1)C1CC2C=CC1C2` (stereo not drawn) [6B10-9], the concentration giving a half-maximal response (EC50) at His-TREM2 (TREM2) [7] amounted to 62 µM. Also, the thermal shift (ΔTm) at 100 µM at His-TREM2 (TREM2) [8] is above 2 °C. Besides, the KD at LAG-3 [1] and at TREM1 [3] was above 300 µM in each case. This compound returned a Kd on His-TREM2 (TREM2) [2] of 68.3 ± 2.8 µM.
Consider `CC(=O)N1CCc2cc(NC(=O)C3(C#N)CCCC3)ccc21` [6B10-13], for which the KD on LAG-3 [1] and at TREM1 [3] was above 300 µM each time. The dissociation constant (Kd) at His-TREM2 (TREM2) [2] was above 300 µM.
In turn, `O=C(Nc1ccc2c(c1)CCN2)C1CCCC1` [6B10] had a KD on LAG-3 [1] above 300 µM. The results for the Kd at His-TREM2 (TREM2) [2] and on TREM1 [5] were 37.6 ± 15.8 µM and 66.9 ± 28.6 µM, respectively.
`O=C(O)C1CC2CCCCC2N1Cc1cc(=O)n2ccccc2n1` (stereo not drawn) [7G19-5]: the dissociation constant KD at LAG-3 [1] is above 300 µM. In addition, the equilibrium dissociation constant (Kd) at His-TREM2 (TREM2) [2] worked out at 4.5 ± 0.9 µM; on TREM1 [5], 56.6 ± 8.6 µM.
In the case of `Cc1cccn2c(=O)cc(CN3C(C(=O)O)CC4CCCCC43)nc12` (stereo not drawn) [7G19], the Kd at His-TREM2 (TREM2) [2] was 3.8 ± 0.3 µM; on LAG-3 [4], 61.9 ± 23.2 µM; at TREM1 [5], 46.5 ± 38.1 µM.

A word on the KD: it is the free concentration of one partner at which half of the binding sites on the other are occupied at equilibrium, for simple one-to-one binding. High values mean lower affinity, low ones higher affinity. By Kd is commonly meant a measure of binding affinity in units of concentration. The EC50 is the concentration at which the effect is half-maximal. The ΔTm is the change in melting temperature against a reference sample.

The record behind these values is article doi:10.1101/2025.11.23.690065v1 (biorxiv, 2025).
